Reference: PMC7871391, “The novel TRPA1 antagonist BI01305834 inhibits ovalbumin-induced bronchoconstriction in guinea pigs” (Respiratory Research, 2021)

How the values were obtained:
TRPA1 = test system: TRPA1; parameters: method as in PMID 17686976, PMID 18954467; conditions: TRPA1-mediated calcium flux ref 46, 47; cited from earlier work
guinea-pig lung slices = assay: TRPA1 agonism in lung slices (airway narrowing, histamine release); conditions: data not shown
Protocol: Lung slices were used for OA and histamine induced airway narrowing studies. In order to do this, lung slices were placed in 1 ml medium and fixed with a plastic ring. After 30 min pre-treatment with the TRPA1 antagonist BI01305834 (0.01, 0.1, 1 or 10 µM) or the vehicle (10% cyclodextrin) OA (10^–5-10^2 µg.ml^−1) or histamine (10^–8-10^–2 M) dose–response curves were established. Using a microscope (Eclipse, TS100; Nikon) time-lapse images (1 frame per 2 s) of the lung slices were captured. The airway luminal area was quantified using image acquisition software (NIS-elements; Nikon) and expressed as percentage of basal area, as described previously.
Lung slices were used for OA-induced histamine determinations, with separate slices for each condition individually. BI01305834 and vehicle pre-treated lung slices were challenged with OA (10 µg.ml^−1) for 5 min. […] Histamine levels of original supernatant and homogenized lung slice supernatant were assessed by liquid chromatography in combination with isotope dilution tandem mass spectrometry (LC–MS/MS). […] Inter-assay imprecision (n = 20 days) was < 2.9% at three different levels (60, 986, 3873 nM, respectively) and limit of quantification was 3.0 nM. Histamine release was calculated as percentage of total histamine present in both supernatant and slice. […]

Structure (SMILES)	IC50 (TRPA1)	induction of airway narrowing (guinea-pig lung slices)	induction of histamine release (guinea-pig lung slices)
CC(C)c1ccc(NC(=O)Cn2cnc3c2c(=O)n(C)c(=O)n3C)cc1 [HC030031]	6.2 to 7.5 µM		
C=CCN=C=S [AITC, allyl isothiocyanate]		unable to induce	unable to induce
